Measured values reported in patent publication EP1997826A2, “Synthetic ligands for immunoglobulins and pharmaceutical compositions containing them” (Tecnogen S.p.A., priority 2007, dated 2008).
Where two headings read alike, the source gives them in different places.

Columns and labels:
RBL 2H3 cells = test: assay for degranulation of the RBL 2H3 cells (release of β-hexose-aminidase induced by anti-DNP IgE and DNP-BSA antigen); type: cell-based, rat; conditions: for percentage inhibition of the degranulation reaction: added together with the antigen; for concentration able to reduce 50% of the cellular degranulation: RBL 2H3 cells, 0.5 µg/ml IgE, 0.05 µg/ml DNP-BSA; for IC50: read-out: concentration able to reduce 50% of the cellular degranulation
Text: The RBL 2H3 cell line, rat basophils that express the receptor with high affinity for the immunoglobulins of class E (FcεRl), is widely used for investigating allergic reactions, because in this cell line the chemical mediators of inflammation are released as a result of allergen specific-IgE-FcεRI binding.
Release of the enzyme β-hexose-aminidase, which is present together with histamine in the granules of mast cells and basophils, can be used as an index of cellular degranulation (Tanaka et al., 1991, Chem. Pharm. Bull, 39, 2072-2076; McCloskey et al., 1988, Proc. Natl. Acad. Sci., USA, 85, 7260-7264).
The activity of the enzyme β-hexose-aminidase, released by the stimulated RBL 2H3 cells, was determined by the method described by Yamanishi et al., 1995, Jour. Biotech. Biochem., 59 (7), 1272-1275, which envisages measurement of the enzymatic activity by measuring the absorbance of the product p-nitrophenol generated by the synthetic substrate p-nitrophenyl-N-acetyl-β-D-glucosamide. 1x10^5 RBL 2H3 cells, trypsinized from plates at confluence, were resuspended in a volume of 80 µl of the culture medium (MEM + 10% inactivated fetal bovine serum) and distributed in each well of the 96-well plates (Costar). After 24 hours, 20 µl of medium containing anti-2,4-dinitrophenol monoclonal IgEs (DNP, Sigma, Cat. No. D-8406) was added to each well.
The microplates were incubated at 37°C for one hour and then washed three times with 100 µl of HBS buffer solution (10 mM HEPES, 135 mM NaCl, 5 mM KCI, 1 mM CaCl2, 0.5 mM MgCl2, 5.6 mM glucose, 0.1 % BSA, pH 7.4). After the washings, 100 µl of HBS containing the 2,4-dinitrophenol antigen conjugated to BSA (Sigma, Cat. No. A-6661) was added. As a control, 100 µl of HBS containing 1% Triton X-100 was added to some wells to determine the total amount of enzyme contained in the cellular granules.
After further incubation at 37°C for two hours, 30 µl of cellular supernatant or of cellular lysate was transferred to a new microplate, to which 50 µl of sodium citrate buffer at pH 4.5, containing 4 mM p-nitrophenyl-N-acetyl-β-D-glucosaminide (Sigma, Cat. No. N9376), a specific substrate for the enzyme β-hexose-aminidase, had been added beforehand. After incubation for two hours at 37°C, the reaction was stopped by adding 100 µl of glycine solution 0.2 M, pH 10.7. The enzymatic activity was determined by measuring the absorbance at 405 nm with a Microplate Reader Model 3550 EIA (Bio-Rad).
In preliminary experiments the immunoglobulins E and the antigen were added at various concentrations in order to determine the optimum concentrations for induction of the reaction of enzymatic release. The conditions identified experimentally correspond to 0.5 µg/ml of IgE and 0.05 µg/ml of antigen DNP conjugated to BSA.
To verify the capacity of the peptides of formula IB and of comparative peptides for inhibiting the degranulation of the RBL 2H3 cells, the peptides were added in the assay together with the antigen at concentrations between 0.1 and 500 µg/ml.

[1] = tested on: female mice of the Balb/c strain; type: in vivo, mouse; conditions: for dose producing 50% inhibition of the local allergic reaction: mouse, intraperitoneally; for Inhibition of skin reaction (%): 30 minutes before antigen
Method: Cutaneous passive anaphylaxis on the mouse ear was induced according to the procedure described by Inagaki et al., Int. Arch. Allergy Appl. Immunol. 1985, 78:113-117. Rat ascitic fluid containing specific IgEs against the ovalbumin antigen was injected in the ear of female mice of the Balb/c strain. Ascitic fluid at different dilutions (5-10-20 times in PBS) was applied by intradermal injections at a volume of 10 µl, permitting the IgEs present in the ascitic fluid to bind to the FcεRs of the local mast cells, sensitizing them. After 48 hours, 0.25 mg of ovalbumin and Evans Blue dye at a concentration of 1.8%, dissolved in 70 µl of PBS, were injected intravenously. After 30 minutes, the appearance, on the mouse ear, of stained areas in the dermis, with extent and intensity of staining proportional to the quantity of antigen-specific IgEs injected with the ascitic fluid, was observed. The experiment included a negative control, represented by the intradermal injection of 10 µl of PBS without ascitic fluid, and there was no corresponding appearance of staining. The mice were sacrificed and the ears were removed for extraction and measurement of the dye discharged in the skin reaction. Each ear was dissolved in 0.5 ml of 1 M KOH, incubating at 37°C for 16 hours. After incubation, 2 ml of a mixture of 0.6M phosphoric acid and acetone in the ratio 5:13 (v:v) was added. The sample was then stirred and filtered, and finally the amount of dye was determined with a spectrophotometer, taking readings at 620 nm. On the basis of the results obtained in the IgE-FcER linear binding assay, selecting as reference point the value of dilution of the ascitic fluid at which the most intense inflammatory reaction was observed, an assay of inhibition of the allergic reaction was performed using peptide IB and the comparative peptide. As described previously, intradermal injections of 10 µl of ascitic fluid, diluted 20 times in PBS, were applied to the ear lobe of a group of Balb/c mice, permitting the IgEs present in the ascitic fluid to bind to the FcεRs of the local mast cells, sensitizing them. After two days, various amounts of the peptides under investigation were dissolved in 100 µl of PBS and administered intraperitoneally to the sensitized mice. In particular, doses corresponding to 0.5 - 1 - 5 - 10 - 50 mg of peptide per kg of body weight of the mouse were used. 100 µl of PBS was injected as negative control. After 30 minutes the mice received the intravenous injection of the solution of ovalbumin and Evans Blue dye.

[2] = Concentration of Peptide 0.1 µg/ml
[3] = Concentration of Peptide 1 µg/ml
[4] = Concentration of Peptide 10 µg/ml
[5] = Concentration of Peptide 50 µg/ml
[6] = Concentration of Peptide 100 µg/ml
[7] = Concentration of Peptide 500 µg/ml

In the case of `C[C@H](O)[C@@H](NC(=O)[C@H](N)CCCNC(=N)N)C(=O)N[C@H](Cc1ccc(O)cc1)C(=O)NCCCC[C@H](NC(=O)[C@@H](Cc1ccc(O)cc1)NC(=O)[C@H](NC(=O)[C@H](N)CCCNC(=N)N)[C@H](C)O)C(=O)NCCCC[C@H](NC(=O)[C@H](CCCCNC(=O)[C@@H](Cc1ccc(O)cc1)NC(=O)[C@H](NC(=O)[C@H](N)CCCNC(=N)N)[C@H](C)O)NC(=O)[C@@H](Cc1ccc(O)cc1)NC(=O)[C@H](NC(=O)[C@H](N)CCCNC(=N)N)[C@H](C)O)C(=O)NCC(=O)O` [Comparative peptide, (H-D-Arg-D-Thr-D-Tyr-)4-L-Lys2-L-Lys-Gly-OH, reference compound], the “percentage inhibition of the degranulation reaction” value (“percentage inhibition” below) (RBL 2H3 cells; [2]) is reported as 0%, the “percentage inhibition” value (RBL 2H3 cells; [3]) is reported as 40% and the “percentage inhibition” value (RBL 2H3 cells; [4]) is reported as 49%. The “percentage inhibition” value (RBL 2H3 cells; [5]) was 59%, the “percentage inhibition” value (RBL 2H3 cells; [6]) was 62% and the “percentage inhibition” value (RBL 2H3 cells; [7]) was 70%. For the same compound, the “concentration able to reduce 50% of the cellular degranulation” value (RBL 2H3 cells) was 10 µg/mL, the IC50 (RBL 2H3 cells) was 4600 nM and the “dose producing 50% inhibition of the local allergic reaction” value [1] was “about 7 mg/kg”.

In the case of “(H-L-Cys(p-MeOBzl)-D-Arg-D-Thr-D-Tyr)4-L-Lys2-L-Lys-L-Lys-OH [Peptide IB]”, the “percentage inhibition” value (RBL 2H3 cells; [2]) is reported as 20%, the “percentage inhibition” value (RBL 2H3 cells; [3]) is reported as 76% and the “percentage inhibition” value (RBL 2H3 cells; [4]) is reported as 80%. For the same compound, the “percentage inhibition” value (RBL 2H3 cells; [5]) was 82%, the “percentage inhibition” value (RBL 2H3 cells; [6]) was 85% and the “percentage inhibition” value (RBL 2H3 cells; [7]) was 90%. The “concentration able to reduce 50% of the cellular degranulation” value (RBL 2H3 cells) was 1 µg/mL, the “activity greater than the activity of the comparative peptide” value (RBL 2H3 cells; degranulation of RBL 2H3 cells) was “approx. 15 times” and the IC50 (RBL 2H3 cells) was ~300 nM. For the same compound, the “Inhibition of skin reaction (%)” value ([1]; Dose of Peptide 0.5 mg/kg intraperitoneally) was 10%, the “Inhibition of skin reaction (%)” value ([1]; Dose of Peptide 1.0 mg/kg intraperitoneally) was 50% and the “Inhibition of skin reaction (%)” value ([1]; Dose of Peptide 5.0 mg/kg intraperitoneally) was 65%. For the same compound, the “Inhibition of skin reaction (%)” value ([1]; Dose of Peptide 10.0 mg/kg intraperitoneally) was 71%, the “Inhibition of skin reaction (%)” value ([1]; Dose of Peptide 50.0 mg/kg intraperitoneally) was 85% and the “activity greater than the activity of the comparative peptide” value ([1]; mouse ear passive cutaneous anaphylaxis) was “about 7 times”. For the same compound, the “dose producing 50% inhibition of the local allergic reaction” value [1] was 1 mg/kg.
